Reference: US20260355196A1, “INHIBITORS AND DEGRADERS OF PIP4K PROTEIN” (Larkspur Biosciences, Inc., priority 2023, published 2026)

Target: T1, PIP4K2C (Homo sapiens, UniProt Q8TBX8)
T1 sequence (Q8TBX8 1-421): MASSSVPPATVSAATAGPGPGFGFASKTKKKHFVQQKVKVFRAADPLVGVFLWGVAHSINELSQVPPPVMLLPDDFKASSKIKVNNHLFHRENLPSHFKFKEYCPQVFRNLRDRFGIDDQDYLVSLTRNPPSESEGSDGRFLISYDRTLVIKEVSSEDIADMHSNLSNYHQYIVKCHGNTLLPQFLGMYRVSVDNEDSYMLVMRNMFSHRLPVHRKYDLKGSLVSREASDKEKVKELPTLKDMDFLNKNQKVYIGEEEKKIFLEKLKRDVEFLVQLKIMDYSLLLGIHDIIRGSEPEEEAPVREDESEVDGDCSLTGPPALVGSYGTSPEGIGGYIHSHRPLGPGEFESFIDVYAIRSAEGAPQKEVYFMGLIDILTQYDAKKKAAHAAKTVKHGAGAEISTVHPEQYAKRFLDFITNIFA
Test: Enzyme Binding Assay (KINOMEscan): active site-directed competition binding to an immobilized ligand
Design: purchased Eurofins DiscoverX, San Diego, CA 87-0007-1094
Conditions: 11-point dose response, duplicate, top concentration 5 micromolar; read-out: Pip4k2c Kd: IC50
In short: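 Active site-directed competition binding against an immobilized ligand. 11-point dose-response in duplicate, top concentration 5 micromolar; IC50 from a Hill equation fitted by the Levenberg-Marquardt algorithm.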

SMILES | IC50 [nM]
CC(=O)N[C@H]1CC[C@H](Nc2ncc(F)c(-c3ccnc(C4(O)CCC4)c3)n2)CC1 [Compound 231, trans-N-(4-((5-fluoro-4-(2-(1-hydroxycyclobutyl)pyridin-4-yl)pyrimidin-2-yl)amino)cyclohexyl)acetamide] | < 500
CC(=O)N[C@H]1CC[C@H](Nc2ncc(F)c(-c3cccc(-n4cc(C(F)(F)F)ccc4=O)c3)n2)CC1 [Compound 234, trans-N-(4-((5-fluoro-4-(3-(2-oxo-5-(trifluoromethyl)pyridin-1 (2H)-yl)phenyl)pyrimidin-2-yl)amino)cyclohexyl)acetamide] | < 500
NC(=O)[C@H]1CC[C@H](Nc2ncc(F)c(-c3cccc(N4CCCOC4=O)c3)n2)CC1 [Compound 236, trans-4-((5-fluoro-4-(3-(2-oxo-1,3-oxazinan-3-yl)phenyl)pyrimidin-2-yl)amino)cyclohexane-1-carboxamide] | < 500
CC(=O)N1CCC(Nc2ncc(F)c(-c3cccc(N4C[C@H](O)CC4=O)c3)n2)CC1 [Compound 237, (4R)-1-[3-[2-[(1-acetyl-4-piperidyl)amino]-5-fluoro-pyrimidin-4-yl]phenyl]-4-hydroxy-pyrrolidin-2-one] | < 500
CC(=O)N1CCC(Nc2ncc(F)c(-c3cccc(-c4ncc[nH]4)c3)n2)CC1 [Compound 239, 1-(4-((4-(3-(1H-imidazol-2-yl)phenyl)-5-fluoropyrimidin-2-yl)amino)piperidin-1-yl)ethan-1-one] | < 500
CC(=O)N[C@H]1CC[C@H](Nc2ncc(F)c(-c3ccnc(C(C)(C)O)c3)n2)CC1 [Compound 241, trans-N-(4-((5-fluoro-4-(2-(2-hydroxypropan-2-yl)pyridin-4-yl)pyrimidin-2-yl)amino)cyclohexyl)acetamide] | < 500
NC(=O)[C@H]1CC[C@H](Nc2ncc(F)c(-c3ccnc(C4(O)CCC4)c3)n2)CC1 [Compound 243, trans-4-((5-fluoro-4-(2-(1-hydroxycyclobutyl)pyridin-4-yl)pyrimidin-2-yl)amino)cyclohexane-1-carboxamide] | < 500
NC(=O)[C@H]1CC[C@H](Nc2ncc(F)c(-c3cccc(-n4cc(C(F)(F)F)ccc4=O)c3)n2)CC1 [Compound 246, trans-4-((5-fluoro-4-(3-(2-oxo-5-(trifluoromethyl)pyridin-1 (2H)-yl)phenyl)pyrimidin-2-yl)amino)cyclohexane-1-carboxamide] | < 500
Cc1ccc(=O)n(-c2cccc(-c3nc(N[C@H]4CC[C@H](C(N)=O)CC4)ncc3F)c2)c1 [Compound 247, trans-4-((5-fluoro-4-(3-(5-methyl-2-oxopyridin-1 (2H)-yl)phenyl)pyrimidin-2-yl)amino)cyclohexane-1-carboxamide] | < 500
CC(=O)N[C@H]1CC[C@H](Nc2ncc(F)c(-c3cccc(N4CCC(O)CC4)c3)n2)CC1 [Compound 250, trans-N-(4-((5-fluoro-4-(3-(4-hydroxypiperidin-1-yl)phenyl)pyrimidin-2-yl)amino)cyclohexyl)acetamide] | < 500
NC(=O)[C@H]1CC[C@H](Nc2ncc(F)c(-c3cccc(N4CCC(O)CC4)c3)n2)CC1 [Compound 251, trans-4-((5-fluoro-4-(3-(4-hydroxypiperidin-1-yl)phenyl)pyrimidin-2-yl)amino)cyclohexane-1-carboxamide] | < 500
CC(=O)N[C@H]1CC[C@H](Nc2ncc(F)c(-c3cccc(C(=O)N4CC[C@H](O)C4)c3)n2)CC1 [Compound 252, trans-N-[4-[[5-fluoro-4-[3-[(3S)-3-hydroxypyrrolidine-1-carbonyl]phenyl]pyrimidin-2-yl]amino]cyclohexyl]acetamide] | < 500
NC(=O)[C@H]1CC[C@H](Nc2ncc(F)c(-c3cccc(-c4ccc[nH]c4=O)c3)n2)CC1 [Compound 254, trans-(1r,4r)-4-((5-fluoro-4-(3-(2-oxo-1,2-dihydropyridin-3-yl)phenyl)pyrimidin-2-yl)amino)cyclohexane-1-carboxamide] | < 500
CC(=O)N[C@H]1CC[C@H](Nc2ncc(F)c(-c3cccc(-c4ccc[nH]c4=O)c3)n2)CC1 [Compound 255, N-(trans-4-((5-fluoro-4-(3-(2-oxo-1,2-dihydropyridin-3-yl)phenyl)pyrimidin-2-yl)amino)cyclohexyl)acetamide] | < 500
CC(=O)N[C@H]1CC[C@H](Nc2ncc(F)c(-c3ccnc(N4CCCCC4=O)c3)n2)CC1 [Compound 257, trans-N-(-4-((5-fluoro-4-(2-(2-oxopiperidin-1-yl)pyridin-4-yl)pyrimidin-2-yl)amino)cyclohexyl)acetamide] | < 500
NC(=O)[C@H]1CC[C@H](Nc2ncc(F)c(-c3ccnc(N4CCCCC4=O)c3)n2)CC1 [Compound 258, trans-4-((5-fluoro-4-(2-(2-oxopiperidin-1-yl)pyridin-4-yl)pyrimidin-2-yl)amino)cyclohexane-1-carboxamide] | < 500
NC(=O)[C@H]1CC[C@H](Nc2ncc(F)c(-c3cccc(C(=O)N4CC[C@H](O)C4)c3)n2)CC1 [Compound 259, trans-(S)-4-((5-fluoro-4-(3-(3-hydroxypyrrolidine-1-carbonyl)phenyl)pyrimidin-2-yl)amino)cyclohexane-1-carboxamide] | < 500

Next, values leading:

IC50 [nM] | SMILES
< 500 | CC(=O)N1CCC(Nc2ncc(F)c(-c3ccnc(C4(O)CCC4)c3)n2)CC1 [Compound 232, 1-(4-((5-fluoro-4-(2-(1-hydroxycyclobutyl)pyridin-4-yl)pyrimidin-2-yl)amino)piperidin-1-yl)ethan-1-one]
< 500 | CC(=O)N[C@H]1CC[C@H](Nc2ncc(F)c(-c3cccc(N4CCOC4=O)c3)n2)CC1 [Compound 233, trans-N-(4-((5-fluoro-4-(3-(2-oxooxazolidin-3-yl)phenyl)pyrimidin-2-yl)amino)cyclohexyl)acetamide]
< 500 | CC(=O)N[C@H]1CC[C@H](Nc2ncc(F)c(-c3cccc(-n4cc(C)ccc4=O)c3)n2)CC1 [Compound 235, trans-N-(4-((5-fluoro-4-(3-(5-methyl-2-oxopyridin-1 (2H)-yl)phenyl)pyrimidin-2-yl)amino)cyclohexyl)acetamide]
< 500 | CC(=O)N[C@H]1CC[C@H](Nc2ncc(F)c(-c3cccc(-n4ccccc4=O)c3)n2)CC1 [Compound 238, trans-N-[4-[[5-fluoro-4-[3-(2-oxo-1-pyridyl)phenyl]pyrimidin-2-yl]amino]cyclohexyl]acetamide]
< 500 | NC(=O)[C@H]1CC[C@H](Nc2ncc(F)c(-c3cccc(-n4ccccc4=O)c3)n2)CC1 [Compound 240, trans-(1r,4r)-4-((5-fluoro-4-(3-(2-oxopyridin-1 (2H)-yl)phenyl)pyrimidin-2-yl)amino)cyclohexane-1-carboxamide]
< 500 | CC(C)(O)c1cc(-c2nc(N[C@H]3CC[C@H](C(N)=O)CC3)ncc2F)ccn1 [Compound 242, trans-4-((5-fluoro-4-(2-(2-hydroxypropan-2-yl)pyridin-4-yl)pyrimidin-2-yl)amino)cyclohexane-1-carboxamide]
< 500 | NC(=O)[C@@H]1CCC[C@H](Nc2ncc(F)c(-c3ccnc(C4(O)CCC4)c3)n2)C1 [Compound 244, (1R,3S)-3-((5-fluoro-4-(2-(1-hydroxycyclobutyl)pyridin-4-yl)pyrimidin-2-yl)amino)cyclohexane-1-carboxamide]
< 500 | NC(=O)[C@H]1CC[C@H](Nc2ncc(F)c(-c3cccc(N4CCOC4=O)c3)n2)CC1 [Compound 245, trans-4-((5-fluoro-4-(3-(2-oxooxazolidin-3-yl)phenyl)pyrimidin-2-yl)amino)cyclohexane-1-carboxamide]
< 500 | CC(=O)N[C@H]1CC[C@H](Nc2ncc(F)c(-c3cccc(N4CCCC4=O)c3)n2)CC1 [Compound 248, trans-N-(4-((5-fluoro-4-(3-(2-oxopyrrolidin-1-yl)phenyl)pyrimidin-2-yl)amino)cyclohexyl)acetamide]
< 500 | NC(=O)[C@H]1CC[C@H](Nc2ncc(F)c(-c3cccc(N4CCCC4=O)c3)n2)CC1 [Compound 249, trans-4-((5-fluoro-4-(3-(2-oxopyrrolidin-1-yl)phenyl)pyrimidin-2-yl)amino)cyclohexane-1-carboxamide]
< 500 | CC(=O)N[C@H]1CC[C@H](Nc2ncc(F)c(-c3ccnc(N4CCOC4=O)c3)n2)CC1 [Compound 253, trans-N-((1r,4r)-4-((5-fluoro-4-(2-(2-oxooxazolidin-3-yl)pyridin-4-yl)pyrimidin-2-yl)amino)cyclohexyl)acetamide]
< 500 | CC(=O)N[C@H]1CC[C@H](Nc2ncc(F)c(-c3cccc(N4CCCCC4=O)c3)n2)CC1 [Compound 256, trans-N-(4-((5-fluoro-4-(3-(2-oxopiperidin-1-yl)phenyl)pyrimidin-2-yl)amino)cyclohexyl)acetamide]
1000 to 5000 | CC(=O)N[C@H]1CC[C@H](Nc2ncc(F)c(-n3cc(-n4ccccc4=O)cn3)n2)CC1 [Compound 260, trans-N-((1r,4r)-4-((5-fluoro-4-(4-(2-oxopyridin-1 (2H)-yl)-1H-pyrazol-1-yl)pyrimidin-2-yl)amino)cyclohexyl)acetamide]
< 500 | CC(=O)N[C@H]1CC[C@H](Nc2ncc(F)c(-c3ccnc(N4CCCC4=O)c3)n2)CC1 [Compound 261, trans-N-(4-((5-fluoro-4-(2-(2-oxopyrrolidin-1-yl)pyridin-4-yl)pyrimidin-2-yl)amino)cyclohexyl)acetamide]
